# Patent US6204284A, “Use of 1-(substitutedphenyl)-3-azabicyclo[3.1.0]hexanes for the treatment of chemical dependencies” (priority 1995, dated 2001)
# Entries after “also recorded” stand apart in the source; their conditions may differ.
# How the values were obtained:
# [1] = test system: Serotonin (5-HT) reuptake in rat brain synaptosomes; assay: Inhibition of rat synaptosomal uptake of 3H-serotonin; assay type: biochemical; conditions: rat diencephalic-mid brain crude synaptosomes; 3H-5HT 2×10^-8 M; Hill analysis
# Excerpt: (§1) Male Wistar rats weighing approximately 180-200 g are decapitated and their brains rapidly removed and dissected according to the method of Glowinski and Iversen. Glowinski, J. and Iversen, L. L., Regional studies of catecholamines in the rat brain I. The disposition of 3H-norepinephrine, 3H-dopamine and 3H-DOPA in various regions of the brain. J. Neurochem. 13:655-669, 1966.
# (§2) Striatal tissues are pooled from three rat brains for the uptake of 3H-dopamine (3H-DA) and diencephalic-mid brain areas were used for the uptake of 3H-norepinephrine (3H-NE) and 3H-serotonin (3H-5HT). The tissues are immediately weighed and homogenized with a teflon-glass pestle homogenizer in 10 volumes of ice cold 0.32 M sucrose. The homogenates are centrifuged at 4° C. at 900×g for 10 minutes to remove nuclear particles and cellular debris. The supernatants are carefully withdrawn and transferred into clean test tubes kept in ice. Aliquots of these preparations containing crude synaptic nerve endings are used in subsequent uptake studies.
# (§3) Amine uptake in crude synaptosomes is determined by a method essentially the same as that described by Snyder and Coyle, Snyder, S. H. and Coyle, J. T. Regional differences in 3H-norepinephrine and 3H-dopamine uptake into rat brain homogenates. J. Pharmacol. Exp. Ther. 165:78-86, 1969. Briefly, a 0.1 ml aliquot of the above tissue preparation is added to test tubes containing 3.7 ml of Krebs-Ringer phosphate buffer pH 7.4 with glucose (2 mg/ml), calcium chloride 0.024%, ascorbic acid (0.2 mg/ml) and nialamide (1.24×10^-5M). 1-(3,4-Dichlorophenyl)-3-azabicyclo[3.1.0]hexane hydrochloride at varying concentrations (0.01-2.5 μM) is added in a 0.1 ml volume. The incubation mixtures are agitated at 37° C. for 10 minutes under an atmosphere of 95% oxygen and 5% CO2 in a Dubnoff metabolic shaker to ensure irreversible inhibition of monoamine oxidase (MAO). After this initial pre-incubation period, the tubes are returned to the ice bath. 3H-DA, 3H-NE or 3H-5HT is added in a 0.1 ml volume to give a final concentration of labeled amine of 2×10^-8 M, and the incubation at 37° C. is continued for an additional 4 min. A set of tubes serving as control (uptake at 0° C.) is left in an ice bath. After the final incubation period, the samples are cooled in ice and then centrifuged at 4° C. at 10,000×g. The supernatant fluid is gently poured off from each tube. The surface of the pellet of each sample is washed with 5 ml of ice cold 0.9% sodium chloride which is then aspirated off without disturbing the pellet. The pellet is resuspended in a cintillation fluid ad radioactivity was determined. Protein content in the tissue samples is determined by the method of Lowry et al. Lowry, O. H., Rosebrough, N. J., Farr, A. L. and Randall, R. J. Protein measurement with the folin reagent. J. Biol. Chem. 193:265, 1951. The concentration of drug which inhibits the uptake of the labeled amine by 50% is determined by Hill analysis of the data.
# [2] = test system: Norepinephrine (NE) reuptake in rat brain synaptosomes; assay: Inhibition of rat synaptosomal uptake of 3H-norepinephrine; assay type: biochemical; conditions: rat diencephalic-mid brain crude synaptosomes; 3H-NE 2×10^-8 M; Hill analysis
# Excerpt: as §1, §2, §3
# [3] = test system: Dopamine (DA) reuptake in rat brain synaptosomes; assay: Inhibition of rat synaptosomal uptake of 3H-dopamine; assay type: biochemical; conditions: rat striatal crude synaptosomes; 3H-DA 2×10^-8 M; Hill analysis
# Excerpt: as §1
# Striatal tissues are pooled from three rat brains for the uptake of 3H-dopamine (3H-DA) and diencephalic-mid brain areas were used for the uptake of 3H-norepinephrine (3H-NE) and 3H-serotonin (3H-5HT). The tissues are immediately weighed and homogenized with a teflon-glass pestle homogenizer in 10 volumes of ice cold 0.32 M sucrose. […]
# Amine uptake in crude synaptosomes is determined by a method essentially the same as that described by Snyder and Coyle, Snyder, S. H. and Coyle, J. T. Regional differences in 3H-norepinephrine and 3H-dopamine uptake into rat brain homogenates. […] The pellet is resuspended in a cintillation fluid ad radioactivity was determined. Protein content in the tissue samples is determined by the method of Lowry et al. Lowry, O. H., Rosebrough, N. J., Farr, A. L. and Randall, R. J. Protein measurement with the folin reagent. […] The concentration of drug which inhibits the uptake of the labeled amine by 50% is determined by Hill analysis of the data.
# Male Wistar rats [4] = assay: Free-choice ethanol (6% v/v) vs tap water drinking, Part II; assay type: in vivo, rat; conditions: for Ethanol Intake / Food Consumption / Ethanol Preference / Total Fluid Intake: mean ± S.D.
# Protocol: (§4) Male Wistar rats are presented with an everyday free-choice between a 6% (v/v) ethanol solution and tap water. Following a seven-day baseline period, which establishes a pattern of stable drinking, only those animals whose consumption is greater than 50% of their total fluid intake are given intraperitoneal injections of three drugs. In part I citalopram (positive control) a neuronal serotonin uptake inhibitor at a dose of 30 mg/kg, […], and 1-(3,4-dichlorophenyl)-3-azabicyclo[3.1.0]hexane hydrochloride, also a serotonin uptake inhibitor, at doses of 5, 10 and 20 mg/kg are given by intraperitoneal injection for seven days. In part II, animals are given intraperitoneal injections of diazepam at a dose of 10 mg/kg and again the positive control used is citalopram at 30 mg/kg. Treatment period for part II also is over a seven-day period. Following the seven-day treatment period, a post-treatment period which lasted for an additional seven days is conducted where the animals are presented with a free choice between ethanol and water in order to determine the rate of recovery of ethanol drinking. During baseline, drug treatment and post-treatment periods, ethanol consumption by the rats is calculated in terms of daily ethanol preference ratio (volume of ethanol per volume of total daily fluid intake) and in terms of daily absolute of ethanol ingested (g/kg body weight).
# (§5) Two hundred (200) drug-naive male Wistar rats obtained from the Canadian Breeding Farm Laboratories in Charles River Canada are used. All animals weigh between 180-200 g at the beginning of the experiment.
# (§6) All animals are individually housed in stainless steel cages, in a room regulated for constant temperature, humidity and a 12-hour light/dark cycle (7:00 a.m.-7:00 p.m.). Each cage is equipped with two calibrated glass Richter tubes to deliver the fluids (ethanol and water) to the animals. All animals are presented with a free choice between ethanol and tap water throughout the experiment. The drinking vessels are randomly reversed in order to avoid bias generated by a position preference in the animals. In addition, Purina Rat Chow is made available throughout the experiment on an ad libitum basis.
# (§7) At approximately the same time every day, 1300 h, the volume in mls of ethanol and tap water consumed by each animal is recorded. All tubes are then removed from the cages, rinsed and refilled with the appropriate fluids, i.e., ethanol solution and tap water. Also, all animals are weighed and their corresponding body weights recorded. At this time, additional food is provided.
# (§8) Drugs used in part I are dissolved in Ringers solution to form the required doses. Drugs used in part II are suspended in a vehicle which consists of a 2% pre-boiled starch solution containing 5% polyethylene glycol 400 and tween 80 (1 drop/10 ml vehicle). All drugs are administered intraperitoneally according to the schedule (see Treatment period).
# Group 2--citalopram 30 mg/kg (n=7)
# Group 3--diazepam 10 mg/kg (n=7)
# (§9) Post-treatment period:--Upon cessation of the drug treatment period, the animals are presented with a free choice between 6% ethanol and tap water for an additional 7 days in order to determine the rate of recovery of ethanol drinking.
# Male Wistar rats [5] = assay: Free-choice ethanol (6% v/v) vs tap water drinking, Part I; assay type: in vivo, rat; conditions: 30 mg/kg i.p. 7 days, mean ± S.D.
# Protocol: as §4, §5, §6, §7, §8
# Group 2--citalopram 30 mg/kg (n=10)
# Group 3--1-(3,4-dichlorophenyl)-3-azabicyclo[3.1.0]hexane hydrochloride 5 mg/kg (n=10)
# Group 4--1-(3,4-dichlorophenyl)-3-azabicyclo[3.1.0]hexane hydrochloride 10 mg/kg (n=10)
# Group 5--1-(3,4-dichlorophenyl)-3-azabicyclo[3.1.0]hexane hydrochloride 20 mg/kg (n=10)
# as §9
# [6] = 30 mg/kg i.p. 7 days, Baseline period
# [7] = 30 mg/kg i.p. 7 days, Baseline period, 30 mg/kg
# [8] = 30 mg/kg i.p. 7 days, Baseline period, listed as citalopram, 30 mg/kg
# [9] = 30 mg/kg i.p. 7 days, Post-Treatment period
# [10] = 30 mg/kg i.p. 7 days, Treatment period, 30 mg/kg
# [11] = 30 mg/kg i.p. 7 days, Treatment period, listed as citalopram, 30 mg/kg
# [12] = Treatment period, listed as citalopram, 30 mg/kg
# [13] = 10 mg/kg i.p. 7 days, Baseline period
# [14] = 10 mg/kg i.p. 7 days, Post-Treatment period
# [15] = 10 mg/kg i.p. 7 days, Treatment period, 10 mg/kg
# [16] = 10 mg/kg i.p. 7 days, Treatment period, listed as diazepam, 10 mg/kg
smiles,measurement,setting,value
COc1ccc(C23CNCC2C3)cc1Br (racemic) [±H 3-Br-4-OCH3],IC50,[1],260 nM
same,IC50,[2],318 nM
c1ccc(C23CNCC2C3)cc1 (racemic) [±H H],IC50,[1],470 nM
same,IC50,[2],401 nM
Cc1ccc(C23CNCC2C3)cc1 (racemic) [±H p-CH3],IC50,[1],137 nM
same,IC50,[3],2360 nM
same,IC50,[2],741 nM
Clc1ccc(C23CNCC2C3)cc1 (racemic) [±H p-Cl],IC50,[1],169 nM
same,IC50,[2],274 nM
Fc1ccc(C23CNCC2C3)cc1 (racemic) [±H p-F],IC50,[1],811 nM
"Cc1ccc(C23CNCC2C3)cc1 (single isomer, unassigned) [+H p-CH3]",IC50,[1],96 nM
same,IC50,[2],215 nM
"Clc1ccc(C23CNCC2C3)cc1 (single isomer, unassigned) [+H p-Cl]",IC50,[1],55 nM
same,IC50,[2],279 nM
CN(C)CCCC1(c2ccc(F)cc2)OCc2cc(C#N)ccc21 (stereo not shown) [Citalopram],Ethanol Intake,Male Wistar rats [4]; [6],4.86 ± 1.09 g/kg body weight
same,Food Consumption,Male Wistar rats [4]; [6],19.82 ± 1.87 g/day
same,Ethanol Preference,Male Wistar rats [4]; [7],86.16 ± 14.74%
same,Total Fluid Intake,Male Wistar rats [4]; [7],4.9042 ± 0.4583 mL/h/kg
same,Ethanol Preference,Male Wistar rats [4]; [8],86.16%
same,Total Fluid Intake,Male Wistar rats [4]; [8],4.9042 mL/h/kg
same,Ethanol Intake,Male Wistar rats [4]; [9],3.87 ± 1.91 g/kg body weight
same,Ethanol Preference,Male Wistar rats [4]; [9],68.90%
same,Food Consumption,Male Wistar rats [4]; [9],19.86 g/day
same,Total Fluid Intake,Male Wistar rats [4]; [9],4.7558 mL/h/kg
same,Ethanol Intake,Male Wistar rats [4]; [10],2.95 ± 1.59 g/kg body weight
same,Ethanol Preference,Male Wistar rats [4]; [10],69.17 ± 30.25%
same,Food Consumption,Male Wistar rats [4]; [10],14.20 ± 2.76 g/day
same,Total Fluid Intake,Male Wistar rats [4]; [10],3.616 ± 0.5479 mL/h/kg
same,Ethanol Intake,Male Wistar rats [4]; [11],partial effect
same,Ethanol Preference,Male Wistar rats [4]; [11],69.17%
same,Food Consumption,Male Wistar rats [4]; [11],14.20 g/day
same,Total Fluid Intake,Male Wistar rats [4]; [11],3.616 mL/h/kg
same,Food intake lower than baseline level during treatment,"Male Wistar rats [4]; 30 mg/kg i.p. 7 days, Treatment vs baseline",approximately 25%
same,Ethanol Intake,Male Wistar rats [5]; Baseline period,4.49 ± 1.18 g/kg body weight
same,Ethanol Preference,Male Wistar rats [5]; Baseline period,75.78 ± 18.09%
same,Food Consumption,Male Wistar rats [5]; Baseline period,20.14 ± 1.71 g/day
same,Total Fluid Intake,Male Wistar rats [5]; Baseline period,5.1746 ± 0.5146 mL/h/kg
same,Ethanol Intake,Male Wistar rats [5]; Post-Treatment period,3.32 ± 1.86 g/kg body weight
same,Ethanol Preference,Male Wistar rats [5]; Post-Treatment period,57.81 ± 32.23%
same,Food Consumption,Male Wistar rats [5]; Post-Treatment period,21.47 ± 1.94 g/day
same,Total Fluid Intake,Male Wistar rats [5]; Post-Treatment period,5.0612 ± 0.6242 mL/h/kg
same,Ethanol Intake,Male Wistar rats [5]; Treatment period,2.34 ± 1.44 g/kg body weight
same,Ethanol Preference,"Male Wistar rats [5]; Treatment period, 30 mg/kg",61.06 ± 35.09%
same,Food Consumption,"Male Wistar rats [5]; Treatment period, 30 mg/kg",11.96 ± 3.56 g/day
same,Total Fluid Intake,"Male Wistar rats [5]; Treatment period, 30 mg/kg",3.446 ± 0.394 mL/h/kg
same,Ethanol Preference,Male Wistar rats [5]; [12],slight but insignificant decrease in ethanol preference
same,Food Consumption,Male Wistar rats [5]; [12],significant decrease in food consumption
same,Total Fluid Intake,Male Wistar rats [5]; [12],3.446 mL/h/kg
CN1C(=O)CN=C(c2ccccc2)c2cc(Cl)ccc21 [Diazepam],Ethanol Intake,Male Wistar rats [4]; [13],3.92 ± 1.75 g/kg body weight
same,Ethanol Preference,Male Wistar rats [4]; [13],73.21 ± 26.62%
same,Food Consumption,Male Wistar rats [4]; [13],21.24 ± 1.94 g/day
same,Total Fluid Intake,Male Wistar rats [4]; [13],4.6321 ± 0.4679 mL/h/kg
same,Ethanol Intake,Male Wistar rats [4]; [14],3.95 ± 1.91 g/kg body weight
same,Ethanol Preference,Male Wistar rats [4]; [14],72.15%
same,Food Consumption,Male Wistar rats [4]; [14],20.98 g/day
same,Total Fluid Intake,Male Wistar rats [4]; [14],4.6487 mL/h/kg
same,Ethanol Intake,Male Wistar rats [4]; [15],3.48 ± 1.51 g/kg body weight
same,Ethanol Preference,Male Wistar rats [4]; [15],72.76 ± 28.03%
same,Food Consumption,Male Wistar rats [4]; [15],20.75 ± 2.04 g/day
same,Total Fluid Intake,Male Wistar rats [4]; [15],4.126 ± 0.369 mL/h/kg
same,Ethanol Intake,Male Wistar rats [4]; [16],no effect on ethanol intake; also recorded: no effect to attenuate voluntary ethanol consumption
same,Ethanol Preference,Male Wistar rats [4]; [16],virtually no change
same,Food Consumption,Male Wistar rats [4]; [16],no effect on food intake
same,Total Fluid Intake,Male Wistar rats [4]; [16],does not affect total fluid intake
